Measurements as given in article PMC3651934 (2011).

Key:
Assay in all cases: ITC
[1] = test system: SAM-I riboswitch A1nU (RNA, riboswitch) GGCUUAUCAAGAGAGGUGGUGGGACUGGCCCGACGAAACCCGGCAACCAGAAAUGGUGCCAAUUCCUGCAGCGGAAACGUUGAAAGAUGAGCCG; conditions: 100 mM KCl, 10 mM MgCl2; 50 mM HEPES pH 7.5, 30 °C; 100 μM SAM titrated into 10 μM RNA; no heat evolved
[2] = test system: SAM-I riboswitch A1nC, G2nU, G3nU (RNA, riboswitch) GGCUUAUCAAGAGAGGUUUCGGGACUGGCCCGACGAAACCCGGCAACCAGAAAUGGUGCCAAUUCCUGCAGCGGAAACGUUGAAAGAUGAGCCG; conditions: 100 mM KCl, 10 mM MgCl2; 50 mM HEPES pH 7.5, 30 °C; 100 μM SAM titrated into 10 μM RNA; no heat evolved
[3] = test system: SAM-I riboswitch, natural k-turn (RNA, riboswitch) GGCUUAUCAAGAGAGGUGGAGGGACUGGCCCGACGAAACCCGGCAACCAGAAAUGGUGCCAAUUCCUGCAGCGGAAACGUUGAAAGAUGAGCCG; conditions: 100 mM KCl, 10 mM MgCl2; 50 mM HEPES pH 7.5, 30 °C
[4] = test system: SAM-I riboswitch G2nC (RNA, riboswitch) GGCUUAUCAAGAGAGGUGCAGGGACUGGCCCGACGAAACCCGGCAACCAGAAAUGGUGCCAAUUCCUGCAGCGGAAACGUUGAAAGAUGAGCCG; conditions: 100 mM KCl, 10 mM MgCl2; 50 mM HEPES pH 7.5, 30 °C; 100 μM SAM titrated into 10 μM RNA; no heat evolved
[5] = test system: SAM-I riboswitch G2nU, G3nU (RNA, riboswitch) GGCUUAUCAAGAGAGGUUUAGGGACUGGCCCGACGAAACCCGGCAACCAGAAAUGGUGCCAAUUCCUGCAGCGGAAACGUUGAAAGAUGAGCCG; conditions: 100 mM KCl, 10 mM MgCl2; 50 mM HEPES pH 7.5, 30 °C
[6] = test system: SAM-I riboswitch G2nA (RNA, riboswitch) GGCUUAUCAAGAGAGGUGAAGGGACUGGCCCGACGAAACCCGGCAACCAGAAAUGGUGCCAAUUCCUGCAGCGGAAACGUUGAAAGAUGAGCCG; conditions: 100 mM KCl, 10 mM MgCl2; 50 mM HEPES pH 7.5, 30 °C
[7] = test system: SAM-I riboswitch G3nU (RNA, riboswitch) GGCUUAUCAAGAGAGGUUGAGGGACUGGCCCGACGAAACCCGGCAACCAGAAAUGGUGCCAAUUCCUGCAGCGGAAACGUUGAAAGAUGAGCCG; conditions: 100 mM KCl, 10 mM MgCl2; 50 mM HEPES pH 7.5, 30 °C
[8] = test system: SAM-I riboswitch A1nC (RNA, riboswitch) GGCUUAUCAAGAGAGGUGGCGGGACUGGCCCGACGAAACCCGGCAACCAGAAAUGGUGCCAAUUCCUGCAGCGGAAACGUUGAAAGAUGAGCCG; conditions: 100 mM KCl, 10 mM MgCl2; 50 mM HEPES pH 7.5, 30 °C; 100 μM SAM titrated into 10 μM RNA; no heat evolved

binding [1]: no
binding [2]: no
Kd [3]: 540 ± 250 nM
binding [4]: no
Kd [5]: 1950 ± 270 nM
Kd [6]: 310 ± 60 nM
Kd [7]: 340 ± 40 nM
binding [8]: no
SMILES: C[S+](CC[C@H](N)C(=O)O)C[C@H]1O[C@@H](n2cnc3c(N)ncnc32)[C@H](O)[C@@H]1O (some centres unmarked)
